Data on 1 molecule can be found in patent US11938121B2, “Treatment of infections and biofilm formation using a cellulose synthase inhibitor” (Purdue Research Foundation, priority 2020, dated 2024).

One test concerns Komagataeibacter xylinus. Nature of the test: K. xylinus cell growth on HS solid medium. Particulars: 6 days. Type of test: cell-based. The text has this: Based on primary protein sequence analysis and a comparison of three-dimensional protein structures, the catalytic sites of cellulose synthases are highly conserved across kingdoms (Huang et al., 2020, Purushotham et al., 2020). The amino acids that are directly involved in glucan chain initiation, elongation, and translocation are conserved between plant and bacterial cellulose synthases (Huang et al., 2020). Based on the conservation of catalytic sites in cellulose synthases, we hypothesized that ES20 and ES20-1 would inhibit bacterial cellulose biosynthesis as well. We chose to test the effects of ES20 and ES20-1 on cell growth and cellulose production in Komagataeibacter xylinus (K. xylinus, previously known as Gluconacetobacter xylinus) because this bacterium produces abundant cellulose. We first tested whether ES20 and ES20-1 affect K. xylinus cell growth. We grew K. xylinus cells in liquid […] (HS) medium and then we inoculated 20 μL of series diluted culture to HS solid growth medium supplemented with DMSO (0.1%) or different concentrations of ES20 and ES20-1. […] We found ES20 and ES20-1 affect K. xylinus colony morphology as well. […] Wrinkles radiating structure is often observed in cellulose-producing bacteria strains and this structure is often affected when cellulose biosynthesis is disrupted.
Komagataeibacter xylinus (previously named Gluconacetobacter xylinus) ATCC strain 700178 was obtained from ATCC (Manassas, Va., USA) to evaluate cellulose production. HS (Hestrin and Schramm) medium was used for culture; HS liquid medium contains 2.0% glucose (w/v), 0.5% yeast extract (w/v), 0.5% peptone (w/v), 0.27% Na2HPO4 (w/v), and 0.15% citric acid (w/v), pH 5.0, and HS solid medium was solidified with 1.8% agar (w/v). To prepare the initial inoculation source, a single K. xylinus colony grown on HS solid medium was transferred to HS liquid medium and cultured at 26° C. for 5 days under static conditions. We used cells from the bottom of the liquid culture as the initial inoculation source to avoid biofilm aggregates at the air-liquid interface. To test the effect of ES20 and ES20-1 on the bacteria growth, initial inoculation source was series diluted and 20 μL culture from each diluted solution was dropped on HS solid medium supplemented with DMSO (0.1%) or different concentrations of ES20 and ES20-1 and cultured at 26° C. for 6 days after the dropped culture was completely dry. To test the effects of ES20 and ES20-1 on cellulose production, the prepared inoculation source was inoculated at a dilution ratio of 1:1000 dilution in HS liquid medium supplemented with 0.1% DMSO or 20 μM of ES20 or ES20-1. Static cultivation was carried out in a 26° C. incubator, and agitated cultivation was carried out at 26° C. with shaking at 220 rpm. […]

For a further test, the target named is T1, GFP-CESA6c^P595S (Arabidopsis thaliana, UniProt Q94JQ6, P595S).
T1 construct: We purified AtCESA6 central cytoplasmic domain carrying missense mutation P595S (CESA6c^P595S); made in house; host or cells: E. coli (inferred from the wild-type CESA6c construct that served as template)
Nature of the test: MST assay with GFP-CESA6c^P595S. Type of test: binding. The text has this:
To obtain the central cytosolic domain of AtCESA6 for the MST assay, we inserted the GFP coding sequence into the SacI and PstI restriction enzyme sites of the pRSF-Duet-1 vector (Huang et al., 2020). The GFP coding sequence was amplified from the pUBN-GFP-DEST vector. The sequence encoding the central cytosolic domain of CESA6 (CESA6c) was amplified from Col-0 cDNA and fused with GFP at the C-terminus. CESA6c construct was used as a template for creating CESA6c^P595S construct by site-directed mutagenesis. Protein purification was performed as previously described (Huang et al., 2020).
MST assays were carried out using a Monolith NT.115 (NanoTemper) machine at the Chemical Genomics Facility at Purdue University. […] The ES20-1 was dissolved in DMSO, and the final concentration of DMSO was 5% (vol/vol). MST standard capillaries were used to load the samples into the MST instrument. Triplicate reactions were performed for each test. The MST data were processed using MO. Affinity Analysis Version 2.3 software.

The subject of test [1] is AtCESA6 (cesa6 alleles es20r1-es20r15). Nature of the test: Root growth of EMS-induced cesa6 mutants es20r1-es20r15 on ES20 analogs. Type of test: in vivo, Arabidopsis thaliana. The conditions noted are these: compared with wild-type/control plants. The text has this:
A subset of active ES20 analogs likely target the catalytic domain of AtCESA6. […] Since ES20 and the nine active ES20 analogs share highly similar structures, we reasoned whether these active analogs target AtCESA6 as well. We therefore examined the growth of es20r1-es20r15 plants in the presence of nine active ES20 analogs compared to wild-type plants.
To test the inhibitory effects of different chemicals on plant growth, wild-type Arabidopsis Col-0 plants were used. The seeds of plants used for growth assays or live cell imaging were sequentially sterilized with 50% bleach and 75% ethanol. […] To quantify the inhibitory effects of different ES20 active analogs on the root growth of Arabidopsis wildtype, EMS mutants, and transgenic plants expressing mutated AtCESA6 in prc1-1 background, sterilized Col-0, mutants, and transgenic plants seeds were sown on gridded Petri plates containing ½-strength MS medium supplemented with different concentrations of ES20 analogs. […] The plates were scanned using an Epson Perfection V550 scanner after 7 days of growth, and the root lengths of plants were quantified using ImageJ software. […] The Petri dishes were scanned, and hypocotyl length was measured using ImageJ. Transgenic plants expressing fluorescence-tagged PIN2, PIP2a, HDEL, VHA-a1, and GOT1p were as reported previously (Xu and Scheres, Plant Cell, 2005, 17, 525-536).

On to `Cc1ccccc1C(=O)NNC(=S)NC(=O)c1ccccc1` [ES20-1], for which the “K. xylinus cell growth inhibition” value with Komagataeibacter xylinus (20 μM and 50 μM) is “inhibit K. xylinus cell growth at both 20 μM and 50 μM concentrations”. Moreover, the “K. xylinus colony morphology (wrinkles radiating structures)” value in the test on Komagataeibacter xylinus (20 μM) is “the wrinkles are not obvious”. Also, at GFP-CESA6c^P595S, the “interaction with CESA6c^P595S” value is reported as “interacts”. Besides, the “sensitivity of es20r1-es20r15 mutants in growth” value in test [1] was “All 15 mutants, which show reduced sensitivity to ES20, also showed reduced sensitivity”.
